Square brackets hold non-standard residues; d marks the D form. Peptide text beside a SMILES is read from it. * marks the point of attachment. Asu = N[C@@H](CCCCCC(=O)O)C(=O)O; NHOH = ON*
Tests used:
Histone deacetylase = assay: Inhibition of Histone deacetylase in HeLa cell nuclear extracts by fluorescence-based assay; parameters: species or system Homo sapiens
Histone deacetylase 1 = Histone deacetylase 1 (Homo sapiens, UniProt Q13547); assay: Inhibition of human HDAC1
Histone deacetylase 8 = target: T1, Histone deacetylase 8 (Homo sapiens, UniProt Q9BY41); assay: Inhibition of human HDAC8
T1 sequence (Q9BY41 whole entry): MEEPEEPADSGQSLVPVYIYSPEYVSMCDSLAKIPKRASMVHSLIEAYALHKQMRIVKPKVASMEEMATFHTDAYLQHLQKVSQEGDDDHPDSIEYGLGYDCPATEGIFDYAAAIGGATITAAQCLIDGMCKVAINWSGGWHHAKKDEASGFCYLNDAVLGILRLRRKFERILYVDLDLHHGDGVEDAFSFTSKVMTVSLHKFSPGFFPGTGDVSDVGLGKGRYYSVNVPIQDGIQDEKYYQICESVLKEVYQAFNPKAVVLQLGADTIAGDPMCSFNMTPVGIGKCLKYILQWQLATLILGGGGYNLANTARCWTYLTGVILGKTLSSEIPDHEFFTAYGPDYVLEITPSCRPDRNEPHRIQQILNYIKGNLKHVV

Histone deacetylase 1, sequence (Q13547 whole entry): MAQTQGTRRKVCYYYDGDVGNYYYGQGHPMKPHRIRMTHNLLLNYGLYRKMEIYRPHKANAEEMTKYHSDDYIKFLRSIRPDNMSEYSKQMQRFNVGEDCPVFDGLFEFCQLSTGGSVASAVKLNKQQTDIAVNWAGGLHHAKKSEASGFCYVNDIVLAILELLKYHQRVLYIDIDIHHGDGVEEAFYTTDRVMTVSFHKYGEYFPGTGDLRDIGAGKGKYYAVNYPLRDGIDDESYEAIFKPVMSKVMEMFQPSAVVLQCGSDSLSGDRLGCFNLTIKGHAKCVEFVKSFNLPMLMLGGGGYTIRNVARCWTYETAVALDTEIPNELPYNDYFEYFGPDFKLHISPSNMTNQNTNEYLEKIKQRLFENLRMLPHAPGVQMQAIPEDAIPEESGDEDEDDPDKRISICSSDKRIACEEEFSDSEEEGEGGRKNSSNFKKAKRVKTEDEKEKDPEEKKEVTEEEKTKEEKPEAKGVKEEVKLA

Structure (SMILES) | IC50 (Histone deacetylase) [nM] | IC50 (Histone deacetylase 1) [nM] | Ki (Histone deacetylase) [nM] | IC50 (Histone deacetylase 8) [nM] | Ki (Histone deacetylase 8) [nM] | Ki (Histone deacetylase 1) [nM]
COC(=O)[C@H](Cc1ccccc1)NC(=O)[C@H](CCCCCC(=O)NO)NC(=O)[C@H](C)NC(C)=O (Ac-Ala-[Asu](NHOH)-Phe-OMe) | 167 | 174 |  |  |  | 
COC(=O)C(Cc1cccc(C[C@H](NC(C)=O)C(=O)O)c1)NC(=O)[C@@H](N)CCCCCC(=O)NO (stereo not given in full) | 8100 | 40000 |  |  |  | 
COC(=O)[C@@H]1Cc2cccc(c2)C[C@H](NC(C)=O)C(=O)N[C@@H](CCCCCC(=O)NO)C(=O)N1 | 46 | 57 | 13.67 | 231 | 5.32 | 4.15

Reference: ChEMBL document CHEMBL1147150, “Design and synthesis of a potent histone deacetylase inhibitor” (J Med Chem, 2007)
